Assay results taken from ChEMBL document CHEMBL2203079, “Virtual screening and QSAR study of some pyrrolidine derivatives as α-mannosidase inhibitors for binding feature analysis” (Bioorg Med Chem, 2012).
Activity calls are given as the source filed them. The rule behind the calls is not given here.

How the values were obtained:
Alpha-mannosidase 2 = molecular target: T1, Alpha-mannosidase 2 (Homo sapiens, UniProt Q16706); assay: Inhibition of human golgi alpha mannosidase 2
T1 sequence (Q16706 whole entry): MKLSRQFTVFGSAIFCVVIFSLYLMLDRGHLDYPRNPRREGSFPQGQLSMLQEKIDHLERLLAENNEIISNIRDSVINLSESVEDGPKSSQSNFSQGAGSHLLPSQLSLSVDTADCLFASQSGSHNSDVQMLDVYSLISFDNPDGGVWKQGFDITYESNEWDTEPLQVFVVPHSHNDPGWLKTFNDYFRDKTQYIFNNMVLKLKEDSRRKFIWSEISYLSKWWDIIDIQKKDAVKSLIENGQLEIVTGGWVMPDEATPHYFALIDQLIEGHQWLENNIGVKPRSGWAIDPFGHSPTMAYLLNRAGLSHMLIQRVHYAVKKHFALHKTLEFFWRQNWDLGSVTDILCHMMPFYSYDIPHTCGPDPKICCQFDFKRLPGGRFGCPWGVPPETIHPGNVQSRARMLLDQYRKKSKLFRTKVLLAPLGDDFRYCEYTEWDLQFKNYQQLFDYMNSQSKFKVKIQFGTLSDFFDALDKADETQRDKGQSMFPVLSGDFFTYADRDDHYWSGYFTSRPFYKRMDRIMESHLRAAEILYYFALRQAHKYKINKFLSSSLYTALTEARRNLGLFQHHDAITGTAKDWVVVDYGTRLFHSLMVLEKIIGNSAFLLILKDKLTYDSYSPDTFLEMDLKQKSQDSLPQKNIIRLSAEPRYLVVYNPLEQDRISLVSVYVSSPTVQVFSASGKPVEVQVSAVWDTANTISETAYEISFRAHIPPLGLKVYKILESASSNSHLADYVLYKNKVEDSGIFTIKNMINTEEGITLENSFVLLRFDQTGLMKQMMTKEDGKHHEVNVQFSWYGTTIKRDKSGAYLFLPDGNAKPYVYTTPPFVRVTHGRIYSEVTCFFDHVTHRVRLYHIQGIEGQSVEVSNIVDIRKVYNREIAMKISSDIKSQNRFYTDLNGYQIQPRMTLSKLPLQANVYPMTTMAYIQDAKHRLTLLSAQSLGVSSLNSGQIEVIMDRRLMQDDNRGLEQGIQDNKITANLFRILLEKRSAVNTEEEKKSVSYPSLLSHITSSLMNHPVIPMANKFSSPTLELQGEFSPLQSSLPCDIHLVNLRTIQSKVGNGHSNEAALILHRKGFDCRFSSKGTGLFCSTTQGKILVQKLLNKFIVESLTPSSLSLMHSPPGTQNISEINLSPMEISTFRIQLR

Canavalia ensiformis = assay: Inhibition of jack bean alpha-mannosidase assessed as p-nitrophenylglycoside substrate hydrolysis at 1 mM
[1] = molecular target: T2, Endoplasmic reticulum mannosyl-oligosaccharide 1,2-alpha-mannosidase (Homo sapiens, UniProt Q9UKM7); assay: Inhibition of human ER alpha mannosidase 1
T2 sequence (Q9UKM7 whole entry): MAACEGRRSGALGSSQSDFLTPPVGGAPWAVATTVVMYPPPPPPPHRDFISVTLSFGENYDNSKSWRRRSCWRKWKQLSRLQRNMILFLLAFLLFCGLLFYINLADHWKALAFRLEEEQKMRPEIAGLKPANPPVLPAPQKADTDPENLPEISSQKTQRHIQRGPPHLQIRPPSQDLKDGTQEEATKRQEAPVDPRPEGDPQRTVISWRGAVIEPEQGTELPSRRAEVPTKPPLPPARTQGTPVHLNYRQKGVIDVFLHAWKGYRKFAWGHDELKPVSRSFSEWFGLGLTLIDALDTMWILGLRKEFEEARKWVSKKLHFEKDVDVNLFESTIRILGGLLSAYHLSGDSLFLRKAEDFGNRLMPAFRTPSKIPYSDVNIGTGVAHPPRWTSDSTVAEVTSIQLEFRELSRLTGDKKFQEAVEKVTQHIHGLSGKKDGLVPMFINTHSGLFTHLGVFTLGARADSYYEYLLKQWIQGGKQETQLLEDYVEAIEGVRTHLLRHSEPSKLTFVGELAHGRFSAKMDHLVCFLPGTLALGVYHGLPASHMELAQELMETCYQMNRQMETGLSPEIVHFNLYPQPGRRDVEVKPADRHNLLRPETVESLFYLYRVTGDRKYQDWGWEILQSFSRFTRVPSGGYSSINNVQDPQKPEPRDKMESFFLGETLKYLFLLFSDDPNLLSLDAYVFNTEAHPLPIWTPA

Prunus dulcis = assay: Inhibition of almond alpha-mannosidase assessed as p-nitrophenylglycoside substrate hydrolysis at 1 mM

SMILES	Ki (Alpha-mannosidase 2) [µM]	inhibition (Canavalia ensiformis)	Ki [1] [µM]	inhibition (Prunus dulcis)
O[C@@H]1CNC[C@@H]1O	531	70%	3.24	40%
O[C@H]1[C@@H](O)CN[C@@H]1CCNc1ccccc1	123	33%	74.3	inactive
OC[C@H](NC[C@H]1NC[C@H](O)[C@@H]1O)c1ccccc1	26.9		16.8	93%
O[C@H]1[C@@H](O)CN[C@@H]1CNCC1CCN(Cc2ccccc2)CC1	43.2	55%	13.1	59%
O[C@H]1[C@@H](O)CN[C@@H]1CNCn1ccnc1	568	55%	326	59%
O[C@H]1[C@@H](O)CN[C@@H]1CN[C@@H](COCOc1cccc(Br)c1)c1ccccc1	12.8	79%	0.31	
O[C@H]1[C@@H](O)CN[C@@H]1CNCc1ccco1	292	49%	136	29%
O[C@H]1[C@@H](O)CN[C@@H]1CN[C@@H](COCc1cccc(F)c1)c1ccccc1	9.14	99%	0.76	
CC(NC[C@H]1NC[C@H](O)[C@@H]1O)c1ccccc1 (stereo partly specified)	82.3	66%	28.1	48%
OC[C@H]1NC[C@H](O)[C@@H]1O [IMINORIBITOL]	1430	54%	1.26	37%
CC(NC[C@H]1NC[C@H](O)[C@@H]1O)C(O)(c1ccccc1)c1ccccc1 (stereo partly specified)	80.8	inactive	27.1	inactive
OC[C@H](NC[C@H]1N[C@H](CO)[C@H](O)[C@@H]1O)c1ccccc1	11.8	98%	24.6	96%
O[C@H]1[C@@H](O)CN[C@@H]1CN[C@H](c1ccccc1)[C@@H](O)c1ccccc1	7.77	88%	0.79	55%
O[C@H]1[C@@H](O)CN[C@@H]1CN[C@@H](c1ccccc1)[C@H](O)c1ccccc1	25.9	84%	2.62	50%
NC[C@H]1NC[C@H](O)[C@@H]1O	1310	81%	1.59	51%

The next lines start with the values.

Ki (Alpha-mannosidase 2) [µM]	inhibition (Canavalia ensiformis)	Ki [1] [µM]	inhibition (Prunus dulcis)	SMILES
4.35	89%	0.16		O=C(NC[C@H](NC[C@H]1NC[C@H](O)[C@@H]1O)c1ccccc1)c1ccccc1Br
450	75%	918	39%	C[C@@H](O)NC[C@H]1NC[C@H](O)[C@@H]1O
36	77%	12.1	63%	COC[C@H](NC[C@H]1NC[C@H](O)[C@@H]1O)c1ccccc1
438	81%	287		OC(O)C[C@H]1NC[C@H](O)[C@@H]1O
6.47	92%	0.44		O[C@H]1[C@@H](O)CN[C@@H]1CN[C@@H](COCOc1ccc(F)cc1)c1ccccc1
64.9	inactive	44.8	inactive	CC(=O)N(CNC[C@H]1NC[C@H](O)[C@@H]1O)Cc1ccccc1
29.9	92%	12	55%	OC[C@@H](NC[C@H]1NC[C@H](O)[C@@H]1O)c1ccccc1
683	66%	488	45%	C[C@H](O)NC[C@H]1NC[C@H](O)[C@@H]1O
152	92%	35		O[C@H]1[C@@H](O)CN[C@@H]1CNCc1ccccc1
15.5	92%	0.31		O[C@H]1[C@@H](O)CN[C@@H]1CN[C@@H](COCOc1ccc(Br)cc1)c1ccccc1
11.3	83%	0.91		O[C@H]1[C@@H](O)CN[C@@H]1CN[C@@H](COCOc1ccccc1F)c1ccccc1
233	89%	77.7	68%	O[C@H]1[C@@H](O)CN[C@@H]1CNCc1cccs1
333	60%	66.9	53%	O[C@H]1[C@@H](O)CN[C@@H]1CNC1CCCC1
68.3	92%	0.23	75%	O[C@H]1[C@@H](O)CN[C@@H]1CN[C@@H](COCc1ccccc1)c1ccccc1
229	inactive	169	inactive	OCC(O)[C@H]1NC[C@H](O)[C@@H]1O (stereo partly specified)
